# BindingDB's records for doi:10.7270/Q2S46QC1 (Nmmlsc, 2009)
# Molecular target: Apoptosis regulator Bcl-2 (Homo sapiens, UniProt P10415)
# Test: inhibitors of Bim-Bcl-2 binding, confirmation, biochemical, dose response, multiplexed HTS hits (AID 2075)
# Conditions: not given
# Apoptosis regulator Bcl-2, sequence (P10415 whole entry): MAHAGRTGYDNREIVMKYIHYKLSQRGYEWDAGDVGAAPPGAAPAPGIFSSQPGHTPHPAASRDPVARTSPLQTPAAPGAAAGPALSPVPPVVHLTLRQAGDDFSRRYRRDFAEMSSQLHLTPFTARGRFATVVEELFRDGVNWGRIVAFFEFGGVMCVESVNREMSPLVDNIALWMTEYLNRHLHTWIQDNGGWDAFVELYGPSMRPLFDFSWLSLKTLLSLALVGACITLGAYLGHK
row,SMILES,EC50 [µM]
1,O=C1NC(=O)C2(Cc3c(nc4ccccn4c3=O)N3CCCCCC32)C(=O)N1Cc1ccccc1 (configuration not stated) [MLS000083668],2.25
2,CC(=O)OCCCNc1cc(Sc2nc3ccccc3s2)c2nonc2c1[N+](=O)[O-] [MLS000521052],0.84
3,O=[N+]([O-])c1c(NCCCO)cc(Sc2nc3ccccc3s2)c2nonc12 [MLS000520994],1.91
4,Cc1ccc(C=NNC(=O)CSc2nnc(-c3ccc(Cl)cc3)n2-c2ccccc2)o1 [SMR000218122],12.3
5,Cc1cc2nn(-c3cccc4ccccc34)nc2cc1N [SMR000076237],1.9
6,CN(CCO)c1cc(Sc2nc3ccccc3s2)c2nonc2c1[N+](=O)[O-] [MLS000520995],6.35

# Same assay, conditions: inactive by the depositor's call
row,SMILES,EC50 [µM]
1,"O=C(NCc1ccccc1)c1ccc2nc(-c3ccco3)c(-c3ccco3)nc2c1 [2,3-bis(furan-2-yl)-N-(phenylmethyl)quinoxaline-6-carboxamide]",20.6
2,"Cc1ccc(-c2nc3c(c(=O)[nH]c(=O)n3Cc3ccccc3)n2C)o1 [7-methyl-8-(5-methyl-2-furanyl)-3-(phenylmethyl)purine-2,6-dione]",48.2
3,Clc1nc(NCc2cccnc2)nc(N2CCOCC2)n1 [MLS000121154],18.9
4,"COc1ccccc1NC1=C(NC(C)=O)C(=O)c2ccccc2C1=O [N-[3-(2-methoxyanilino)-1,4-dioxonaphthalen-2-yl]acetamide]",12.1
5,"COc1ccc(CCNC(=O)c2ccc3nc(-c4ccco4)c(-c4ccco4)nc3c2)cc1OC [N-[2-(3,4-dimethoxyphenyl)ethyl]-2,3-di-2-furylquinoxaline-6-carboxamide]",25.8
6,CCN(CC)C(=O)COC(=O)c1cc(-c2ccco2)nc2ccccc12 [SMR000377201],29.5
